Measurements taken from patent US20200291018A1, “TAM KINASE INHIBITORS” (SYROS PHARMACEUTICALS, INC., priority 2017, published 2020).
Structures can show the parent of a compound that is named as a salt.

What was measured:
TYRO3 = molecular target: T1, TYRO3 (Homo sapiens, UniProt Q06418); assay: TR-FRET kinase activity assay, TYRO3; assay type: biochemical; details: ATP at Km, 60 minutes
T1 sequence (Q06418 41-890): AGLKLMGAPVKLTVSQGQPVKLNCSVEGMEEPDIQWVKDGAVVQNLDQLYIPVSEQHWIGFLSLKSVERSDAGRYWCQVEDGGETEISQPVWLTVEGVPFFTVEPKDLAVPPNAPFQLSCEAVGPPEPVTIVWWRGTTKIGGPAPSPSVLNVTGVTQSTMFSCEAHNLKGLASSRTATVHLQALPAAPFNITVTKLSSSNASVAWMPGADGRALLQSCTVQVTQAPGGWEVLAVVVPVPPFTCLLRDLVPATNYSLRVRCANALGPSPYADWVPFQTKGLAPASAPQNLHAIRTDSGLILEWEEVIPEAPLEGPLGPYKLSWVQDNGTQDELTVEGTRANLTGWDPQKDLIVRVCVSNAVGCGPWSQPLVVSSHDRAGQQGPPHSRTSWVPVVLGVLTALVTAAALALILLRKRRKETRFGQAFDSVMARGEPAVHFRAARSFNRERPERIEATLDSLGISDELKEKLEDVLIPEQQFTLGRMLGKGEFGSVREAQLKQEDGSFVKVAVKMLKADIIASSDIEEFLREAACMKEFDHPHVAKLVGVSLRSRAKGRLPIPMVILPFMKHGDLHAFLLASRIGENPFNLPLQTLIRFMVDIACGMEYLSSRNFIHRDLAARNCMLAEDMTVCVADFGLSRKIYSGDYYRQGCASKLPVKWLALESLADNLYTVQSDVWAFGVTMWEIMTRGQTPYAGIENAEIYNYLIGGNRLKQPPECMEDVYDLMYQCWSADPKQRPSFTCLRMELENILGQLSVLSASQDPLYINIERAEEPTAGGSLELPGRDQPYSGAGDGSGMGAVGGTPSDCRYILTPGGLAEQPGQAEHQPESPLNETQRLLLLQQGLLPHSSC
Method in brief: (§1)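 Enzyme, fluorescent-labeled peptide substrate and compound were mixed in 50 mM HEPES pH 7.5, 10 mM MgCl2, 1 mM EGTA, 0.01% Brij 35, 1 mM DTT at RT; ATP at each enzyme's Km started the reaction. After 60 min, EDTA quench and Eu-anti-phosphotyrosine-site antibody (30 min, dark); TR-FRET read, IC50 derived.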

MERTK = molecular target: T2, MERTK (Homo sapiens, UniProt Q12866); assay: TR-FRET kinase activity assay, MERTK; assay type: biochemical; details: for IC50: TR-FRET activity assay, ATP at Km, 60 minutes, read-out: Mer IC50; for Mer/Flt3 ratio (FLT3 IC50/Mer IC50): ratio calculated as FLT3 IC50/Mer IC50
T2 sequence (Q12866 21-999): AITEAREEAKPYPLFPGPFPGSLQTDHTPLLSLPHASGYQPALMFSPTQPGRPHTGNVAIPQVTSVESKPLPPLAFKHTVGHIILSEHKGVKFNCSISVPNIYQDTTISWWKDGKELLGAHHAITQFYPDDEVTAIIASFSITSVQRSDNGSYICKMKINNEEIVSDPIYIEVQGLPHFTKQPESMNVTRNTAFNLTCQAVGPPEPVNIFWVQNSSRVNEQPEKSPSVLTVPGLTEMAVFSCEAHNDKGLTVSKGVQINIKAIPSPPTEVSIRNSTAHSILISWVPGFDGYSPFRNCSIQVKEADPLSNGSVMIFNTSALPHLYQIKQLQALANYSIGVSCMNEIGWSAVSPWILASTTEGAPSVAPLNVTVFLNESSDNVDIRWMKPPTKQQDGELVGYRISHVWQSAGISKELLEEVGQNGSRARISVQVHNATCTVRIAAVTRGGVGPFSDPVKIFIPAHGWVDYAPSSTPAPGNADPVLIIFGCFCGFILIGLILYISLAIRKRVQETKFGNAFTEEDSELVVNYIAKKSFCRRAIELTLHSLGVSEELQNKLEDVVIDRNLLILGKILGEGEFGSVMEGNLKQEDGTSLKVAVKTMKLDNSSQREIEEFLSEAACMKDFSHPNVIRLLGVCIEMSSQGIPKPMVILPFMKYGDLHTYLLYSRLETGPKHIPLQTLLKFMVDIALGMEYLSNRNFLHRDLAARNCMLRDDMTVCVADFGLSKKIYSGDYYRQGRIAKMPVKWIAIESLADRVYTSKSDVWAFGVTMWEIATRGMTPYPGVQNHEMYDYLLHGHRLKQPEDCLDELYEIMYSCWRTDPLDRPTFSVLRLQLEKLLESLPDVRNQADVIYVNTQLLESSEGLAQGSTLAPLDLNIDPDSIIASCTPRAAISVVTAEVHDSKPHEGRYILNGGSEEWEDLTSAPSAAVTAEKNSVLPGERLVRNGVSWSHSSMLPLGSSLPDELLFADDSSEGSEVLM
Method in brief: as §1

Row | SMILES | IC50 (TYRO3) [µM] | IC50 (MERTK) [µM] | Mer/Flt3 ratio (FLT3 IC50/Mer IC50) (MERTK)
1 | CCCC(C)Nc1ncc2c(=O)n(C3CCN(CCOC)CC3)cc([C@H]3CC[C@H](O)CC3)c2n1 (stereo partly drawn) [Compound 150] | ≤ 0.1 | ≤ 0.1 | +++ (a ratio of >100)
2 | CN1CCC(Nc2ncc3c(OC4CCNCC4)ncc([C@H]4CC[C@H](O)CC4)c3n2)C1=O (stereo partly drawn) [Compound 162] | 1 to 10 | 1 to 10 | + (a ratio of >2.0 and <10)
3 | CCCC(C)Nc1ncc2c(OC3CC(C)(C)N(C)C(C)(C)C3)ncc([C@H]3CC[C@H](O)CC3)c2n1 (stereo partly drawn) [Compound 161] | ≤ 0.1 | ≤ 0.1 | +++ (a ratio of >100)
4 | CCCC(C)Nc1ncc2c(OC3CCS(=O)(=O)CC3)ncc([C@H]3CC[C@@H](O)CC3)c2n1 (stereo partly drawn) [Compound 142] | 0.1 to 1 | ≤ 0.1 | ++ (a ratio of between 10 and 100)
5 | CCCC(C)Nc1ncc2c(O[C@H]3C[C@H]4CC[C@@H](C3)O4)ncc([C@H]3CC[C@H](O)CC3)c2n1 (stereo partly drawn) [Compound 175] | 0.1 to 1 | ≤ 0.1 | ++ (a ratio of between 10 and 100)
6 | CCCCNc1ncc2c(OC3CCOCC3)ncc([C@H]3CC[C@H](O)CC3)c2n1 [Compound 104, (1r,4r)-4-(2-(butylamino)-5-((tetrahydro-2H-pyran-4-yl)oxy)pyrido[4,3-d]pyrimidin-8-yl)cyclohexanol] | ≤ 0.1 | ≤ 0.1 | + (a ratio of >2.0 and <10)
7 | C[C@@H](CO)Nc1ncc2c(OC3CCOCC3)ncc([C@H]3CC[C@H](O)CC3)c2n1 [Compound 137] | 0.1 to 1 | 0.1 to 1 | ++ (a ratio of between 10 and 100)
8 | CCCC(C)Nc1ncc2c(=O)n(C3CCN(C(C)=O)CC3)cc([C@H]3CC[C@H](O)CC3)c2n1 (stereo partly drawn) [Compound 128, 6-(1-acetylpiperidin-4-yl)-8-((1r,4r)-4-hydroxycyclohexyl)-2-(pentan-2-ylamino)pyrido[4,3-d]pyrimidin-5(6H)-one hydrochloride] | ≤ 0.1 | ≤ 0.1 | +++ (a ratio of >100)
9 | CCCC(C)Nc1ncc2c(OC3CCNCC3)ncc([C@H]3CC[C@H](O)CC3)c2n1 (stereo partly drawn) [Compound 166] | ≤ 0.1 | ≤ 0.1 | +++ (a ratio of >100)
10 | CCCC(C)Nc1ncc2c(OC3CCC(F)(F)CC3)ncc([C@H]3CC[C@H](O)CC3)c2n1 (stereo partly drawn) [Compound 153] | 0.1 to 1 | ≤ 0.1 | +++ (a ratio of >100)

Other lines, results leading:

Row | IC50 (TYRO3) [µM] | IC50 (MERTK) [µM] | Mer/Flt3 ratio (FLT3 IC50/Mer IC50) (MERTK) | SMILES
11 | > 10 | ≤ 0.1 | +++ (a ratio of >100) | CCCC(C)Nc1ncc2c(N3CCC[C@@H](N(C)C)C3)ncc([C@H]3CC[C@H](O)CC3)c2n1 (stereo partly drawn) [Compound 188]
12 | ≤ 0.1 | ≤ 0.1 | +++ (a ratio of >100) | CCCC(C)Nc1ncc2c(O[C@H]3CC[C@H](O)CC3)ncc([C@H]3CC[C@H](O)CC3)c2n1 (stereo partly drawn) [Compound 139]
13 | > 10 | ≤ 0.1 | ++ (a ratio of between 10 and 100) | CCCC(C)Nc1ncc2c(N3CC(N(C)C)C3)ncc([C@H]3CC[C@H](O)CC3)c2n1 (stereo partly drawn) [Compound 181]
14 | ≤ 0.1 | ≤ 0.1 | +++ (a ratio of >100) | CCCC(C)Nc1ncc2c(NC3CCN(C)CC3)ncc([C@H]3CC[C@H](O)CC3)c2n1 (stereo partly drawn) [Compound 154]
15 | > 10 | ≤ 0.1 | ++ (a ratio of between 10 and 100) | CCCC(C)Nc1ncc2c(OC3CCOCC3)ncc([C@H]3CC[C@@H](N(C)C)CC3)c2n1 (stereo partly drawn) [Compound 184]
16 | ≤ 0.1 | ≤ 0.1 | +++ (a ratio of >100) | CCCC(C)Nc1ncc2c(N3CCC[C@H](N(C)C)C3)ncc([C@H]3CC[C@H](O)CC3)c2n1 (stereo partly drawn) [Compound 180]
17 | ≤ 0.1 | ≤ 0.1 | ++ (a ratio of between 10 and 100) | CCCC(C)Nc1ncc2c(N3CC[C@@H](N(C)C)C3)ncc([C@H]3CC[C@H](O)CC3)c2n1 (stereo partly drawn) [Compound 156]
18 | ≤ 0.1 | ≤ 0.1 | +++ (a ratio of >100) | CCCC(C)Nc1ncc2c(NC3CCNCC3)ncc([C@H]3CC[C@H](O)CC3)c2n1 (stereo partly drawn) [Compound 158]
